{"source": "patent US11173173B2", "about": "“Methods for treating chemoresistant cancer-initiating cells” (UNIVERSITY OF CONNECTICUT, priority 2015, dated 2021)", "key": {"[1]": {"test_system": "leukemic Pten:β-cat^Act (T-ALL) mice", "experiment": "Long-term survival of treated leukemic mice", "assay_type": "in vivo, mouse", "settings": "single treatment cycle, no transplantation", "method": "Chemotherapy consisted of Nelarabine (Selleck) and Dexamethasone (BioVision) administered daily for 5 days consecutively. 43.4 mg/ml Nelarabine was administered intravenously via the tail vain according to the formula: Body Weight (g)×5=volume to inject (μl), which yielded 217 mg/kg. 2.5 mg/ml Dexamethasone was injected intraperitoneally according to the formula: Body Weight (g)×4=volume to inject (μl), yielding 10 mg/kg. […] [Low]NanoDXR (also referred to as [Low]NanoDoxo throughout) treatment used doxorubicin nanoparticles as described in International Patent Publication WO 2015/054269 (incorporated by reference in its entirety) administered as a single IV injection once per week on day 1 relative to above treatments using 0.8 mg/kg. Maintenance [Low]NanoDXR consisted of once per week injections of 0.4 mg/kg. Groups combining Nelarabine with Doxorubicin used a single injection containing both drugs. All drugs were solubilized in 45% (2-Hydroxypropyl)-β-cyclodextrin (HBC)."}, "[2]": {"test_system": "LSCs and HSPCs of leukemic Pten:β-catAct mice", "experiment": "Example 6: LSCs and HSPCs in BM of leukemic mice, Doxo vs NanoDoxo vs Doxil with chemotherapy", "assay_type": "in vivo, mouse", "settings": "Doxo 0.5 mg/kg x5 daily, NanoDoxo or Doxil single 0.8 mg/kg, BM 5-6 days after treatment", "source_text": "All drugs were solubilized in 45% (2-Hydroxypropyl)-β-cyclodextrin (HBC)."}, "pS^552-β-catenin": {"test_system": "pS^552-β-catenin", "experiment": "Anti-pS552-β-catenin staining of populations sorted from treated leukemic mice", "assay_type": "in vivo, mouse", "settings": "[Low]DXR 0.5 mg/kg daily x5; chemotherapy Nelarabine 217 mg/kg + Dexamethasone 10 mg/kg daily x5", "source_text": "Open arrows indicate a single treatment cycle for typical clinical use of DXR and targeted use strategy (inner box) drawn to relative scales. Triangles represent DXR treatment drawn proportionally to scale. The cumulative targeted dose (distributed over 5 days consecutively) is indicated to relative scale by the inner triangle (white) (see Methods). c, Representative flow cytometry sorting gates indicating HSPC, LSC and (non-LSC) T-ALL blast cell populations. d, Populations from (c) were sorted from leukemic mice treated as indicated in (a,b) with vehicle, chemotherapy, [Low]DXR or chemotherapy+[Low]DXR and stained with Anti-pS^552-β-catenin antibody. Mean fluorescent intensity (MFI) is indicated for each population and treatment. e, Representative images of pS^552-β-catenin staining of LSCs sorted from mice treated as indicated from (d). Scale bars, 30 μm (inset 3 μm).\nChemotherapy consisted of Nelarabine (Selleck) and Dexamethasone (BioVision) administered daily for 5 days consecutively. 43.4 mg/ml Nelarabine was administered intravenously via the tail vain according to the formula: Body Weight (g)×5=volume to inject (μl), which yielded 217 mg/kg. 2.5 mg/ml Dexamethasone was injected intraperitoneally according to the formula: Body Weight (g)×4=volume to inject (μl), yielding 10 mg/kg. […]\nIt was next determined whether DXR could inhibit pS^552-β-catenin in vivo. […]"}, "[3]": {"test_system": "BM cells isolated from leukemic Pten:β-cat^Act double mutants (LSCs, HSPCs)", "experiment": "In vitro treatment of BM cells from leukemic mice, flow cytometry for LSCs and HSPCs", "assay_type": "cell-based, mouse", "settings": "11, 33 or 100 nM, 72 hours", "method": "Doxorubicin, 0105375, and thioguanosine were added to 11, 33 or 100 nM and cultured for 72 hours and analyzed by flow cytometry for LSCs (a) and HSPCs (b) as in FIG. 1. Fold change before and after culture for each population is indicated relative to equivalent vehicle control concentrations.\nBone marrow cells from leukemic mice at 8 weeks post-induction were cultured overnight at 5-20×10^4 cells per well in 96-well U-bottom tissue culture plates (Becton, Dickinson and Company; Cat. No. 353077) in HSC expansion media in low O2 conditions as previously described (Perry, J. M. et al. Cooperation between both Wnt/{beta}-catenin and PTEN/PI3K/Akt signaling promotes primitive hematopoietic stem cell self-renewal and expansion. Genes Dev 25, 1928-1942 (2011)). Doxorubicin (Sigma; D1515), 0105375 ((S)-N-(2-bromobenzyl)-N-(1-hydroxy-3-phenylpropan-2-yl)ethenesulfonamide, University of Kansas CMLD compound), or Thioguanosine was mixed with HSC expansion media and added to the cultures to obtain final concentrations of 11, 33, 100 nM. Equivalent amounts of DMSO alone (vehicle control) were added to parallel cultures for comparison. Half-media changes were performed approximately every 24 hrs. Cultures were analyzed after 72 hrs exposure to the indicated drug."}}, "data": [{"smiles": "COc1cccc2c1C(=O)c1c(O)c3c(c(O)c1C2=O)C[C@@](O)(C(=O)CO)C[C@@H]3O[C@H]1C[C@H](N)[C@H](O)[C@H](C)O1", "note": "[DXR, doxorubicin]", "values": [{"measurement": "survival of treated leukemic mice", "setting": "[1]", "result": "only minor and insignificant improvement"}, {"measurement": "HSPC recovery in BM", "setting": "[2]", "result": "facilitates recovery of HSPCs"}, {"measurement": "LSCs in BM", "setting": "[2]", "result": "prevents this expansion"}, {"measurement": "pS552-β-catenin level in LSCs sorted from treated mice", "setting": "pS^552-β-catenin", "result": "reduced in LSCs isolated from mice recently treated with [Low]DXR, although consistent variability yielded no statistical significance"}, {"measurement": "HSPCs after culture, relative to vehicle", "setting": "[3]", "result": "not HSPCs"}, {"measurement": "LSCs after culture, relative to vehicle", "setting": "[3]", "result": "significantly reduced LSCs"}]}]}
